Like-named read-outs stand apart in the source and are kept apart here.
Columns and labels:
Type in all cases: binding
[1] = target: T1, HeLa cell extract proteins (Homo sapiens, UniProt P16070)
T1 construct: endogenous in cells; host or cells: HeLa cell extract

[2] = target: T2, HeLa cell extract proteins (Homo sapiens, UniProt P20618)
T2 construct: endogenous in cells; host or cells: HeLa cell extract
T2 sequence (P20618 29-241): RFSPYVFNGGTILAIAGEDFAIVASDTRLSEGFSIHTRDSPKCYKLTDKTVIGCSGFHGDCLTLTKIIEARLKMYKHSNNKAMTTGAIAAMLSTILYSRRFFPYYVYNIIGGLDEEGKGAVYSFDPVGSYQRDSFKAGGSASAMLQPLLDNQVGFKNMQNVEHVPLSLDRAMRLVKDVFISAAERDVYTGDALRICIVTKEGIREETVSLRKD

[3] = target: T3, HeLa cell extract proteins (Homo sapiens, UniProt P30050)
T3 construct: endogenous in cells; host or cells: HeLa cell extract

[4] = target: T4, HeLa cell extract proteins (Homo sapiens, UniProt P50454)
T4 construct: endogenous in cells; host or cells: HeLa cell extract
T4 sequence (P50454 19-418): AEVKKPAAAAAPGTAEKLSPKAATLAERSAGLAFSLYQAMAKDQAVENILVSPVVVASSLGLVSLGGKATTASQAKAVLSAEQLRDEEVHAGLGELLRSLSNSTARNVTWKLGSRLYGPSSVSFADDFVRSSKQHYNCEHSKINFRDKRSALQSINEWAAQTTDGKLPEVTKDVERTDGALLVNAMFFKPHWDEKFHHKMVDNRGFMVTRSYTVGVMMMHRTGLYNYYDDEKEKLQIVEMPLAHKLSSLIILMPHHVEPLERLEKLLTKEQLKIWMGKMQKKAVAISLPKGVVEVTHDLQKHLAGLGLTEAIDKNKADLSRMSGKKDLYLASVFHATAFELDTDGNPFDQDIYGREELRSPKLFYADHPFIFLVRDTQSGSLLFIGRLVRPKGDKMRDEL

[5] = target: T5, HeLa cell extract proteins (Homo sapiens, UniProt P62826)
T5 construct: endogenous in cells; host or cells: HeLa cell extract

[6] = target: T6, HeLa cell extract proteins (Homo sapiens, UniProt Q14978)
T6 construct: endogenous in cells; host or cells: HeLa cell extract
T6 sequence (Q14978 1-699): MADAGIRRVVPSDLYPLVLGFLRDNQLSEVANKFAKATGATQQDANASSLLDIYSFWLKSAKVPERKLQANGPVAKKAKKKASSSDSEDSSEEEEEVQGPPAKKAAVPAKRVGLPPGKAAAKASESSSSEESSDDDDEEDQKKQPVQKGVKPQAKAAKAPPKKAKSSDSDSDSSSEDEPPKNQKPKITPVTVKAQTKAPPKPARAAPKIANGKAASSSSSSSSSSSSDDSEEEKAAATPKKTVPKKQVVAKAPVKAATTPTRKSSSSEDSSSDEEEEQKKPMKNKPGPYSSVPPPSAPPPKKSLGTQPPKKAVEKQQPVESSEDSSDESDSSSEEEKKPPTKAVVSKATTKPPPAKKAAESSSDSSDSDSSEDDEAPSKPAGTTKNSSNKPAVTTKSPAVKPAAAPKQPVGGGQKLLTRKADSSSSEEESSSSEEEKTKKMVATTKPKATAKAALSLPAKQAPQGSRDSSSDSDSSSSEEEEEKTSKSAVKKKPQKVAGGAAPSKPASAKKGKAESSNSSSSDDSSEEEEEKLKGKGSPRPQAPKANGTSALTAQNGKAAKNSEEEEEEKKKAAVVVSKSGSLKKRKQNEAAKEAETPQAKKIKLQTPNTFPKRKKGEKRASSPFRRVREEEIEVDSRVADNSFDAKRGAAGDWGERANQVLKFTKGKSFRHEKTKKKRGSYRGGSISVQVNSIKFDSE

[7] = target: T7, HeLa cell extract proteins (Homo sapiens, UniProt Q16637)
T7 construct: endogenous in cells; host or cells: HeLa cell extract

[8] = target: T8, HeLa cell extract proteins (Homo sapiens, UniProt Q6PJT7)
T8 construct: endogenous in cells; host or cells: HeLa cell extract
T8 sequence (Q6PJT7 1-736): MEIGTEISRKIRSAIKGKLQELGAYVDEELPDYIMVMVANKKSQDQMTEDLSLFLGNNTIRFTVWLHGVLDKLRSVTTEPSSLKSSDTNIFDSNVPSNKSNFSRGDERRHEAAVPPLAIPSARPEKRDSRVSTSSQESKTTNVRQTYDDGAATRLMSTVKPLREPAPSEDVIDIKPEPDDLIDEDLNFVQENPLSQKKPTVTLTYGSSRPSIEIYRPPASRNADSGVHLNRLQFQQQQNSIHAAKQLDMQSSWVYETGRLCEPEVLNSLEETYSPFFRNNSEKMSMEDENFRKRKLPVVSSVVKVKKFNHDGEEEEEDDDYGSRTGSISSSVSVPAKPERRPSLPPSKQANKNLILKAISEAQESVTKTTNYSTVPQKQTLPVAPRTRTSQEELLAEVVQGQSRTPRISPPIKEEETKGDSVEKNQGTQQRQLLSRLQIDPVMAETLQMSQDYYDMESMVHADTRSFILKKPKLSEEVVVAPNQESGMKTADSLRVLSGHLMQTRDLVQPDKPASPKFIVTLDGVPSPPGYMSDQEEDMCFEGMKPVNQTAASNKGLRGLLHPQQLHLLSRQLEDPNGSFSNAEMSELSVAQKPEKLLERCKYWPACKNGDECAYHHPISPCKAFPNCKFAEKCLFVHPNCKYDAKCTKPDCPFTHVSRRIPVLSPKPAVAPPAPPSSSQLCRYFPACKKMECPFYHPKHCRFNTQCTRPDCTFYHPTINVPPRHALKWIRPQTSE

[9] = target: T9, HeLa cell extract proteins (Homo sapiens, UniProt Q9HBU6)
T9 construct: endogenous in cells; host or cells: HeLa cell extract
T9 sequence (Q9HBU6 1-452): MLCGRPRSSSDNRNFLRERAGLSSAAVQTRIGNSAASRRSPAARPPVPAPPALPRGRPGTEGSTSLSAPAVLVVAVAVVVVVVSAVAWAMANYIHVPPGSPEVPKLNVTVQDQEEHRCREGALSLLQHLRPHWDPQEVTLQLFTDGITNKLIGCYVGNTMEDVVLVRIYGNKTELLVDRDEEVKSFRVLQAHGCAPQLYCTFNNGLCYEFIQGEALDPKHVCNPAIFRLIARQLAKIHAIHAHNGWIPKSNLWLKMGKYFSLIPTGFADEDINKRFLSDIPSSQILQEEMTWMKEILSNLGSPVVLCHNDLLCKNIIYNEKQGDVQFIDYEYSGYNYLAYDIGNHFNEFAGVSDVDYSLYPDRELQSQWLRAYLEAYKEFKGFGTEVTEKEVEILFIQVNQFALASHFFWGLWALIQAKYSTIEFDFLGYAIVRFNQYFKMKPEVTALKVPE

T7 sequence (Q16637 whole entry): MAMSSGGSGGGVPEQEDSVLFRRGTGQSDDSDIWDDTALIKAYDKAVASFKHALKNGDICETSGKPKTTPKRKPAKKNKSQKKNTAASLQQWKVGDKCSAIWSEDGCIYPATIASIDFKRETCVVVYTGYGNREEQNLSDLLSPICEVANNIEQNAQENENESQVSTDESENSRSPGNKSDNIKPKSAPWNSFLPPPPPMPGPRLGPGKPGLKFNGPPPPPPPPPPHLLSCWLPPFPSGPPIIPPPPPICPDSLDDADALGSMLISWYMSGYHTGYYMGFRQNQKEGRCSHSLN
T1 sequence (P16070 21-742): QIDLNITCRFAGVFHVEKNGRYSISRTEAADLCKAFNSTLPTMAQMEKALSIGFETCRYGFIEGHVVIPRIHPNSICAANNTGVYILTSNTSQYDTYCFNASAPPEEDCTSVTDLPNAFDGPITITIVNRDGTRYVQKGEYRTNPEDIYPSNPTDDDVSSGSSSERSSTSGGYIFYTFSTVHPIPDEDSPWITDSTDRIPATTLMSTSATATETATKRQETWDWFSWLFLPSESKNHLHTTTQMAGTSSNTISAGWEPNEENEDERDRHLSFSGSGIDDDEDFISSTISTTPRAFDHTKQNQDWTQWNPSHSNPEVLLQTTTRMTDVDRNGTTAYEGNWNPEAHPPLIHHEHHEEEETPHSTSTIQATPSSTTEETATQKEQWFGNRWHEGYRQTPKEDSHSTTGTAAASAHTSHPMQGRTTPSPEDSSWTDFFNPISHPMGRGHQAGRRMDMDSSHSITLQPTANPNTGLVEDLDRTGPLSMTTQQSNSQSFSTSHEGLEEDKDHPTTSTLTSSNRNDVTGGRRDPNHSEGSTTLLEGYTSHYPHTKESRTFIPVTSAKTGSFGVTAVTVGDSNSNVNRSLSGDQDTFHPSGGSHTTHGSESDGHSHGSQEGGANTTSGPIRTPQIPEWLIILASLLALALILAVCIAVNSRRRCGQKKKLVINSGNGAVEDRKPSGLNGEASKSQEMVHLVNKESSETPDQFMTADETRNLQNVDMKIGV

| Structure (SMILES) | fold changes relative to vehicle control ([1]; protein CD44, HeLa) | fold changes relative to vehicle control ([2]; HeLa, protein PSMB1) | fold changes relative to vehicle control ([3]; HeLa, captured protein RPL12) | fold changes relative to vehicle control ([4]; HeLa, protein SERPINH1) | fold changes relative to vehicle control ([5]; HeLa, protein RAN) | fold changes relative to vehicle control ([6]; protein NOLC1, HeLa) | fold changes relative to vehicle control ([7]; HeLa, protein SMN1) | fold changes relative to vehicle control ([8]; HeLa, captured protein ZC3H14) | fold changes relative to vehicle control ([9]; protein ETNK1, HeLa) | fold changes relative to vehicle control ([2]; protein PSMB1, HeLa) | fold changes relative to vehicle control ([3]; protein RPL12, HeLa) | fold changes relative to vehicle control ([4]; protein SERPINH1, HeLa) | fold changes relative to vehicle control ([5]; protein RAN, HeLa) | fold changes relative to vehicle control ([7]; protein SMN1, HeLa) | fold changes relative to vehicle control ([8]; captured protein ZC3H14, HeLa) | fold changes relative to vehicle control ([9]; HeLa, protein ETNK1) | other results |
| --- | --- | --- | --- | --- | --- | --- | --- | --- | --- | --- | --- | --- | --- | --- | --- | --- | --- |
| Nc1nc2c(c(=O)[nH]1)N(C=O)C(CNc1ccc(C(=O)N[C@@H](CCC(=O)O)C(=O)O)cc1)CN2 (stereo partly drawn) [LEU, leucovorin] | 1.08 | 0.96 | 1.11 | 0.99 | 0.98 | 0.93 | 0.94 | 1 | 0.99 | – | – | – | – | – | – | – | – |
| Nc1nc2[nH]cc(CCc3ccc(C(=O)N[C@@H](CCC(=O)O)C(=O)O)cc3)c2c(=O)[nH]1 [PTX, pemetrexed] | – | – | – | – | – | – | – | – | – | – | – | – | – | – | – | – | fold changes relative to vehicle control [1]: 1.04; fold changes relative to vehicle control [2]: 0.78; fold changes relative to vehicle control [3]: 1.13; fold changes relative to vehicle control [4]: 1.08; fold changes relative to vehicle control [5]: 1; fold changes relative to vehicle control [6]: 0.87; fold changes relative to vehicle control [7]: 0.99; fold changes relative to vehicle control [8]: 0.95; fold changes relative to vehicle control [9]: 0.91 |
| CCCCCCOc1ccc(Cc2cnc(N)nc2N)cc1 [compound 1] | 1.08 | – | – | – | – | 0.9 | – | – | – | 1.05 | 1.15 | 1.07 | 1.1 | 1 | 0.83 | 0.94 | – |
| CCCCCCOc1cccc(Cc2cnc(N)nc2N)c1 [compound 2] | 1.42 | – | – | – | – | 1.44 | – | – | – | 1.28 | 1.24 | 1.61 | 1.8 | 1.09 | 0.94 | 0.99 | – |
| Nc1nc2cccc(-c3ccccc3)c2n1Cc1ccc(Cl)c(Cl)c1 [compound 3] | 1.49 | – | – | – | – | 0.96 | – | – | – | 0.92 | 1.08 | 0.93 | 0.93 | 0.98 | 0.96 | 1.53 | – |
| NCCOCCOCC(=O)Nc1nc2ncc(CNc3ccc(C(=O)NC(CCC(=O)O)C(=O)O)cc3)nc2c(=O)[nH]1 (stereo not drawn) [compound 6] | 1.3 | 0.94 | 1.12 | 1.21 | 1.11 | 0.96 | 1.16 | 0.99 | 0.96 | – | – | – | – | – | – | – | – |
| NCCCNc1ccc(C(=O)NC(CCC(=O)O)C(=O)O)cc1 (stereo not drawn) [compound 7] | 1.06 | 0.86 | 0.97 | 0.98 | 0.95 | 0.9 | 0.97 | 1.04 | 1.01 | – | – | – | – | – | – | – | – |

Source: paper PMC6199744, “Development of Chemical Proteomics for the Folateome and Analysis of the Kinetoplastid Folateome” (ACS Infectious Diseases, 2018)
